Results published in US8685636B2, “Heparin-insensitive method for determining direct coagulation factor inhibitors” (Siemens Healthcare Diagnostics Products GmbH, priority 2011, dated 2014).
Each block holds one compound with its values, some of them ahead of it.

Key:
bovine thrombin = bovine thrombin (Bos taurus, UniProt P00735); assay: Chromogenic thrombin inhibition assay in plasma samples pretreated with oxidizing agent (sodium hypochlorite) and neutralizing agent (HCl); format: biochemical; settings: for ΔA/min (conversion of chromogenic thrombin substrate): plasma without inhibitor 2623
Procedure: (§1) Various amounts of direct coagulation factor inhibitors (rivaroxaban as direct factor Xa inhibitor, argatroban as direct thrombin inhibitor) or indirect coagulation factor inhibitors (fondaparinux pentasaccharide [Arixtra®], high-molecular-weight heparin [HMWH]) were added to normal human plasma.
(§2) 20 μl of plasma sample were mixed with 10 μl of a 0.1% strength hypochlorous acid (sodium hypochlorite) as oxidizing agent, and the reaction mix was incubated at +37° C. for 30 seconds. Subsequently, 10 μl of a 0.1% strength hydrochloric acid solution were added to the reaction mix to neutralize the oxidizing agent, and the reaction mix was incubated at +37° C. for 30 seconds. Subsequently, 140 μl of thrombin reagent (bovine thrombin, 6 U/ml) were added to the reaction mix, and the reaction mix was incubated at +37° C. for 30 seconds. Subsequently, 50 μl of a chromogenic thrombin substrate (Tos-L-Gly-Pro-Arg-ANBA-isopropylamide, 4 mmol/l) were added to the reaction mix, and conversion of the substrate (in ΔA/time) was determined at a wavelength of 405 nm in an automated coagulation measurement instrument (BCS® System, Siemens Healthcare Diagnostics).
(§3) The reduction in substrate conversion compared to plasma without any inhibitors correlates with the amount of inhibitor in the sample.

human factor Xa = human factor Xa (Homo sapiens, UniProt P00742); assay: Chromogenic factor Xa inhibition assay in plasma samples pretreated with oxidizing agent (sodium hypochlorite) and neutralizing agent (HCl); format: biochemical; settings: for ΔA/min (conversion of chromogenic factor Xa substrate): plasma without inhibitor 2268
Procedure: as §1
as §2, with “95” for “140”, “factor Xa” for “thrombin”, “(human factor Xa, 1 U/ml in TRIS buffer, pH 8.0)” for “(bovine thrombin, 6 U/ml)”, “80” for “50”, “(Z-D-Leu-Gly-Arg-ANBA-methylamide,” for “(Tos-L-Gly-Pro-Arg-ANBA-isopropylamide,”
as §3

[1] = 20 μg/ml in normal human plasma, pretreated sample
[2] = 200 μg/ml in normal human plasma, pretreated sample
[3] = pretreatment with hypochlorite then HCl
[4] = plasma samples containing the substance
[5] = 200 ng/ml in normal human plasma, pretreated sample

Chain of human factor Xa (P00742 235-488 limits assumed): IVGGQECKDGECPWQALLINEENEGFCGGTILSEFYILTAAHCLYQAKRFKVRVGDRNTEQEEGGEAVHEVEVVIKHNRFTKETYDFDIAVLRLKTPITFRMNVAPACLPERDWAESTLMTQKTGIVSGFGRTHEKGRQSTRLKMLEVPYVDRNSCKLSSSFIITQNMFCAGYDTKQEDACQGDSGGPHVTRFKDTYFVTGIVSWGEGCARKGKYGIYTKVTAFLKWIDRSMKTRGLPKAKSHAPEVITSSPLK
Chain of human factor Xa (P00742 41-179 partner limits assumed): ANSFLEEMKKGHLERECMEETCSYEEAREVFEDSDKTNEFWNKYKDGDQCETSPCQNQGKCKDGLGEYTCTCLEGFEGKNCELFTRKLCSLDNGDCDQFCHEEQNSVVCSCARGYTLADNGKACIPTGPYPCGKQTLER

- inhibition at 1 µg/mL (bovine thrombin; 1 μg/ml in normal human plasma, pretreated sample): 5%
- inhibition at 4 µg/mL (bovine thrombin; 4 μg/ml in normal human plasma, pretreated sample): 2%
- inhibition at 1 µg/mL (human factor Xa; 1 μg/ml in normal human plasma, pretreated sample, read-out: FXa inhibition): 4%
- inhibition at 4 µg/mL (human factor Xa; 4 μg/ml in normal human plasma, pretreated sample, read-out: FXa inhibition): 3%
Structure (SMILES): CO[C@H]1O[C@H](COS(=O)(=O)O)[C@@H](O[C@@H]2O[C@@H](C(=O)O)[C@@H](O[C@H]3O[C@H](COS(=O)(=O)O)[C@@H](O[C@@H]4O[C@H](C(=O)O)[C@@H](O[C@H]5O[C@H](COS(=O)(=O)O)[C@@H](O)[C@H](O)[C@H]5NS(=O)(=O)O)[C@H](O)[C@H]4O)[C@H](OS(=O)(=O)O)[C@H]3NS(=O)(=O)O)[C@H](O)[C@H]2OS(=O)(=O)O)[C@H](O)[C@H]1NS(=O)(=O)O [Arixtra, fondaparinux]

- inhibition at 20 µg/mL (bovine thrombin; [1]): 95%
- ΔA/min (conversion of chromogenic thrombin substrate) (bovine thrombin; [1]): 140 ΔA/min
- inhibition at 200 µg/mL (bovine thrombin; [2]): 99%
- ΔA/min (conversion of chromogenic thrombin substrate) (bovine thrombin; [2]): 36 ΔA/min
- effect of pretreatment of the samples on the inhibition of thrombin by the substance (in words) (bovine thrombin; [3]): not impaired
- ΔA/min (conversion of chromogenic factor Xa substrate) (human factor Xa; [1]): 2176 ΔA/min
- inhibition at 20 µg/mL (human factor Xa; 20 μg/ml in normal human plasma, pretreated sample, read-out: FXa inhibition): 4%
- factor Xa inhibition (in words) (human factor Xa; [4]): factor Xa inhibition does not take place
Structure (SMILES): CC1CNc2c(cccc2S(=O)(=O)N[C@@H](CCCNC(=N)N)C(=O)N2CC[C@@H](C)C[C@@H]2C(=O)O)C1 (stereo partly drawn) [argatroban]

- inhibition at 0.2 µg/mL (bovine thrombin; [5]): 0%
- ΔA/min (conversion of chromogenic thrombin substrate) (bovine thrombin; [5]): 2612 ΔA/min
- thrombin inhibition (in words) (bovine thrombin; [4]): thrombin inhibition does not take place
- ΔA/min (conversion of chromogenic factor Xa substrate) (human factor Xa; [5]): 1296 ΔA/min
- inhibition at 0.2 µg/mL (human factor Xa; 200 ng/ml in normal human plasma, pretreated sample, read-out: FXa inhibition): 43%
- effect of pretreatment of the samples on the inhibition of factor Xa by the substance (in words) (human factor Xa; [3]): not impaired
Structure (SMILES): O=C(NC[C@H]1CN(c2ccc(N3CCOCC3=O)cc2)C(=O)O1)c1ccc(Cl)s1 [rivaroxaban]
